Like-named read-outs stand apart in the source and are kept apart here.
Tests used:
[1] = target: intracellular GCN2 (phosphorylation of the GCN2 substrate eIF2α) (Homo sapiens, UniProt Q9P2K8); assay: GCN2 cellular inhibition assay (AlphaScreen SureFire P-eIF2α Ser51, borrelidin-treated U2OS cells); type: cell-based
Procedure: Compounds can be screened for their ability to inhibit intracellular GCN2 using an AlphaScreen assay (Perkin Elmer) to detect phosphorylation of the GCN2 substrate eIF2α in borrelidin-treated cells. U2OS cells are plated at 5,000 cells per well in 384-well white polystyrene plates (Corning 3570) in McCoy's 5 A media (GIBCO 26600-023) supplemented with 10% foetal bovine serum (SAFC 12103C), Penicillin/Streptomycin solution diluted 1:100 (Sigma P0781), and 2 mM L-glutamine (Sigma G7513), and allowed to adhere overnight at 37° C. in 5% CO2. Compounds are then added to the cell media from a final concentration of 40 μM in 4-fold serial dilutions. Borrelidin (FluoroChem M01440) is immediately added to the wells to a final concentration of 10 μM and the cells are incubated for 1 h at 37° C. in 5% CO2. After 1 h of treatment with borrelidin, the media is removed, and the cells are lysed with lysis buffer (TGR BioSciences TGRLB) at ambient temperature.
An AlphaScreen SureFire P-eIF2α (Ser51) assay kit (Perkin Elmer TGREIF2S) was used to measure levels of eIF2α phosphorylated on Serine 51. Anti-phosphorylated eIF2α Ser51 antibody-linked acceptor beads (TGR BioScience 6760617) are added to the cell homogenate (diluted 1:250 into a mixture of activation (TGR BioScience TGRAB) and reaction buffer (TGR BioScience TGREIF2S) prepared immediately before use). The plate is then incubated for 2 h at ambient temperature in the dark. Anti-eIF2α antibody-linked donor beads (TGR BioScience 6760617) were then added (diluted 1:100 in dilution buffer (TGR BioScience TGRDB) prepared immediately before use). The plate is then incubated overnight at ambient temperature in the dark.
Plates are analyzed on an Alpha Technology-compatible PHERAstar FS plate reader (BMG Labtech Version 1.14) to quantify phosphorylated eIF2α Ser51 levels. The percentage inhibition of phosphorylated eIF2α is calculated by comparison to control wells stimulated with borrelidin alone.

GCN2 kinase = GCN2 kinase (Homo sapiens, UniProt Q9P2K8); assay: GCN2 enzyme inhibition assay (Transcreener ADP2 fluorescence polarization); type: biochemical; settings: 280 μM ATP
GCN2 kinase, sequence (Q9P2K8 whole entry): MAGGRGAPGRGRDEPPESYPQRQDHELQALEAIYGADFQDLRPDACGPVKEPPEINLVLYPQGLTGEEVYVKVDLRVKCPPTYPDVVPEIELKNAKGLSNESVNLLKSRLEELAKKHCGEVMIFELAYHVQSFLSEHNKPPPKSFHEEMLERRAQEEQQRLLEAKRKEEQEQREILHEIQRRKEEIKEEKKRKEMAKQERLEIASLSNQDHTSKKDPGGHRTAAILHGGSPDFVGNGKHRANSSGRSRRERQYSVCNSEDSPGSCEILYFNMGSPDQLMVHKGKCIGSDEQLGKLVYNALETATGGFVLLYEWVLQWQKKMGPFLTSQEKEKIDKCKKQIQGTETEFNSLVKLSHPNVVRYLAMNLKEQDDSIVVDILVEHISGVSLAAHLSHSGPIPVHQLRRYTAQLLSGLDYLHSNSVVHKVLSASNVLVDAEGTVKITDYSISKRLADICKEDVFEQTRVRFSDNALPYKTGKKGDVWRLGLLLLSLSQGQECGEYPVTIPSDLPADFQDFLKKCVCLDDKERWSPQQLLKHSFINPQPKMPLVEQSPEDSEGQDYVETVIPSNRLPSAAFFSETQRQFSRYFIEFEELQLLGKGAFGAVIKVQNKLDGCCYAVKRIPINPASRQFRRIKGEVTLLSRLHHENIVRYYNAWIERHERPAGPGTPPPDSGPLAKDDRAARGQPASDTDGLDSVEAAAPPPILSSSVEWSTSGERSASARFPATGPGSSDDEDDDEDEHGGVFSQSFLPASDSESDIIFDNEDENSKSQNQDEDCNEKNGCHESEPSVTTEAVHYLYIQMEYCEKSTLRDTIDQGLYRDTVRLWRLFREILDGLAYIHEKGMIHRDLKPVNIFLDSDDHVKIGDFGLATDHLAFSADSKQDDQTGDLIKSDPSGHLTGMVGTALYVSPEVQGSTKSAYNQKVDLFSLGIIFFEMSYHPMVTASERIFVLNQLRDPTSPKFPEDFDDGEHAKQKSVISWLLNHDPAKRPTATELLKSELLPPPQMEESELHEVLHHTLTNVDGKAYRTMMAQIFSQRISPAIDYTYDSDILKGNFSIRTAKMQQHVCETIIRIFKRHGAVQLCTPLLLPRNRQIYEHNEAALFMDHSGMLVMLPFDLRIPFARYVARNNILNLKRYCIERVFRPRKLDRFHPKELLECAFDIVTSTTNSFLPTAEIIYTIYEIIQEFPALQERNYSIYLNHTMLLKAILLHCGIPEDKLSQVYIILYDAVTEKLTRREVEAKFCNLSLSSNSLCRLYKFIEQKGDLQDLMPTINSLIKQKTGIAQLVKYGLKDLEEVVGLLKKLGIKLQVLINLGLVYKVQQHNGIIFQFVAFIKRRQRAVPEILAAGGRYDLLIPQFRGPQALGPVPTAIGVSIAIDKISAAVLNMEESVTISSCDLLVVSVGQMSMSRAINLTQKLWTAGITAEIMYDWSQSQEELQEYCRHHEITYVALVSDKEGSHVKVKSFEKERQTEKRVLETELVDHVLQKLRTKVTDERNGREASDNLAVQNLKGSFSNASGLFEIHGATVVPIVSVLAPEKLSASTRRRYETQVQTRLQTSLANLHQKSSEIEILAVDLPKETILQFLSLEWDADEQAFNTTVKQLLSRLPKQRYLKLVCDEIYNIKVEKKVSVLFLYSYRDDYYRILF
Method in brief: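 Human GCN2 (4 nM) preincubated 10 min with compound (0–8 μM) and 200 μM (RS)7 peptide in Tris-HCl pH 7.5, NaCl, MgCl2, DTT. Reaction started with 280 μM ATP, run 1 h at 25 °C. ADP detected by Transcreener fluorescence polarization. IC50 and Ki(app) fitted by tight-binding algorithm.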

[2] = compounds of Formula IV, biomarker assay, phosphorylated eIF2α Ser51 in borrelidin-treated U2OS cells
[3] = Enzyme activity for compounds of Formula IV, Ki(app), 25° C.
[4] = compounds of Formula II, biomarker assay, phosphorylated eIF2α Ser51 in borrelidin-treated U2OS cells
[5] = compounds of Formula II, 4 nM GCN2 kinase

intracellular GCN2 (phosphorylation of the GCN2 substrate eIF2α), sequence (Q9P2K8 whole entry): as above

Row | SMILES | IC50 [1, 2] [nM] | Ki (GCN2 kinase; [3]) [nM] | IC50 [1, 4] [nM] | Ki (GCN2 kinase; [5]) [nM] | other results
1 | C[C@H]1CN(c2ccnc(-c3cnc4cnc(C(F)F)cn34)n2)C[C@@H](CNS(C)(=O)=O)C1(F)F [IV-21, N-(((3S,5S)-1-(2-(6-(Difluoromethyl)imidazo[1,2-a]pyrazin-3-yl)pyrimidin-4-yl)-4,4-difluoro-5-methylpiperidin-3-yl)methyl)methanesulfonamide] | > 5000 | 100 to 1000 | – | – | –
2 | CC1C(c2cn[nH]c2)CCCN1c1ccnc(-c2cnc3cnc(C(F)(F)F)cn23)n1 (single isomer, unassigned) [IV-420, 3-(4-(2-Methyl-3-(1H-pyrazol-4-yl)piperidin-1-yl)pyrimidin-2-yl)-6-(trifluoromethyl)imidazo[1,2-a]pyrazine] | < 500 | < 10 | – | – | –
3 | Cc1n[nH]c(C)c1C1CN(c2ccnc(-c3cnc4cnc(C(F)(F)F)cn34)n2)CC(C)N1 (single isomer, unassigned) [IV-467, 3-(4-(3-(3,5-Dimethyl-1H-pyrazol-4-yl)-5-methylpiperazin-1-yl)pyrimidin-2-yl)-6-(trifluoromethyl)imidazo[1,2-a]pyrazine] | > 5000 | 100 to 1000 | – | – | –
4 | N=S1(=O)CCN(c2cc(-c3cnc4ccc(C(F)F)nn34)ncn2)CC1 [II-676, 4-[6-[6-(Difluoromethyl)imidazo[1,2-b]pyridazin-3-yl]pyrimidin-4-yl]-1-imino-1,4-thiazinane 1-oxide] | – | – | > 5000 | 10 to 1000 | –
5 | O=C1NCC2CN(c3cc(-c4cnc5ccc(C(F)F)nn45)ccn3)CCN12 (centres unmarked) [II-172, 7-(4-(6-(Difluoromethyl)imidazo[1,2-b]pyridazin-3-yl)pyridin-2-yl)hexahydroimidazo[1,5-a]pyrazin-3(2H)-one] | – | – | 500 to 5000 | 10 to 1000 | –
6 | CC(=O)N1CCCN(c2cc(-c3cnc4ccc(C(F)F)nn34)ccn2)CC1 [II-163, 1-(4-(4-(6-(Difluoromethyl)imidazo[1,2-b]pyridazin-3-yl)pyridin-2-yl)-1,4-diazepan-1-yl)ethanone] | – | – | 500 to 5000 | 10 to 1000 | –
7 | NC(=O)C1COCCN(c2ccnc(-c3cnc4cnc(C(F)(F)F)cn34)n2)C1 (centres unmarked) [IV-425, 4-(2-(6-(Trifluoromethyl)imidazo[1,2-a]pyrazin-3-yl)pyrimidin-4-yl)-1,4-oxazepane-6-carboxamide] | > 5000 | 100 to 1000 | – | – | –
8 | N#Cc1cn2c(-c3nccc(N4CCCC(c5c[nH]cn5)C4)n3)cnc2cn1 (centres unmarked) [IV-341, 3-(4-(3-(1H-Imidazol-4-yl)piperidin-1-yl)pyrimidin-2-yl)imidazo[1,2-a]pyrazine-6-carbonitrile] | > 5000 | 10 to 100 | – | – | –
9 | CS(=O)(=O)NCC1CCN(c2cc(-c3cnc4ccc(C(F)F)nn34)ncn2)C1 (centres unmarked) [II-394, N-((1-(6-(6-(Difluoromethyl)imidazo[1,2-b]pyridazin-3-yl)pyrimidin-4-yl)pyrrolidin-3-yl)methyl)methanesulfonamide] | – | – | 500 to 5000 | 10 to 1000 | –
10 | CC(=O)N1CCN(c2cc(-c3cnc4ccc(C(F)F)nn34)ncn2)C(C)C1 (centres unmarked) [II-368, 1-(4-(6-(6-(Difluoromethyl)imidazo[1,2-b]pyridazin-3-yl)pyrimidin-4-yl)-3-methylpiperazin-1-yl)ethan-1-one] | – | – | > 5000 | 10 to 1000 | –
11 | FC(F)(F)c1cn2c(-c3nccc(N4CCC=C(c5cnsc5)C4)n3)cnc2cn1 [IV-535, 4-(1-(2-(6-(Trifluoromethyl)imidazo[1,2-a]pyrazin-3-yl)pyrimidin-4-yl)-1,2,5,6-tetrahydropyridin-3-yl)isothiazole] | 500 to 5000 | 10 to 100 | – | – | –
12 | OCCc1cc(C2CCCN(c3ccnc(-c4cnc5cnc(C(F)F)cn45)n3)C2)n[nH]1 (centres unmarked) [IV-92, 2-(3-(1-(2-(6-(Difluoromethyl)imidazo[1,2-a]pyrazin-3-yl)pyrimidin-4-yl)piperidin-3-yl)-1H-pyrazol-5-yl)ethan-1-ol] | > 5000 | 100 to 1000 | – | – | –
13 | CS(=O)(=O)NCC1(O)CCCN(c2cc(-c3cnc4ccc(C(F)F)nn34)ncn2)C1 (centres unmarked) [II-158, N-((1-(6-(6-(Difluoromethyl)imidazo[1,2-b]pyridazin-3-yl)pyrimidin-4-yl)-3-hydroxypiperidin-3-yl)methyl)methanesulfonamide] | – | – | 500 to 5000 | 10 to 1000 | –
14 | Cc1cn2c(-c3nccc(N4CCNC(c5cn[nH]c5)C4C)n3)cnc2cn1 (centres unmarked) [IV-398, 6-Methyl-3-(4-(2-methyl-3-(1H-pyrazol-4-yl)piperazin-1-yl)pyrimidin-2-yl)imidazo[1,2-a]pyrazine] | > 5000 | 10 to 100 | – | – | –
15 | CS(=O)(=O)C1CCCN(c2ccnc(-c3cnc4cnc(C(F)F)cn34)n2)C1 (centres unmarked) [IV-165, 6-(Difluoromethyl)-3-(4-(3-(methylsulfonyl)piperidin-1-yl)pyrimidin-2-yl)imidazo[1,2-a]pyrazine] | > 5000 | 100 to 1000 | – | – | –
16 | C[C@H]1CN(c2ccnc(-c3cnc4sc(C(F)F)cn34)n2)C[C@@H](CNS(C)(=O)=O)C1(F)F (stereo in doubt) [Compound V-1, N-((-1-(2-(2-(Difluoromethyl)imidazo[2,1-b]thiazol-5-yl)pyrimidin-4-yl)-4,4-difluoro-5-methylpiperidin-3-yl)methyl)methanesulfonamide] | – | – | – | – | IC50 ([1]; compounds of Formula V, U2OS cells, 10 μM borrelidin, 1 h, read-out: GCN2 Biomarker (IC50)): 500 to 5000 nM; Ki (GCN2 kinase; compounds of Formula V, 4 nM GCN2 kinase): < 10 nM
17 | CC1C2COC(=O)N2CCN1c1cc(-c2cnc3ccc(C(F)F)nn23)ncn1 (centres unmarked) [II-547, 7-(6-(6-(Difluoromethyl)imidazo[1,2-b]pyridazin-3-yl)pyrimidin-4-yl)-8-methylhexahydro-3H-oxazolo[3,4-a]pyrazin-3-one] | – | – | 500 to 5000 | 10 to 1000 | –
18 | CC1C(CS(C)(=N)=O)CCCN1c1cc(-c2cnc3ccc(C(F)F)nn23)ncn1 (centres unmarked) [II-486, ((1-(6-(6-(Difluoromethyl)imidazo[1,2-b]pyridazin-3-yl)pyrimidin-4-yl)-2-methylpiperidin-3-yl)methyl)(imino)(methyl)-λ^6-sulfanone] | – | – | 500 to 5000 | 10 to 1000 | –
19 | CN1C(=O)CN(c2cc(-c3cnc4ccc(C(F)F)nn34)ncn2)C[C@H]1CNS(C)(=O)=O [II-7, (S)—N-((4-(6-(6-(Difluoromethyl)imidazo[1,2-b]pyridazin-3-yl)pyrimidin-4-yl)-1-methyl-6-oxopiperazin-2-yl)methyl)methanesulfonamide] | – | – | > 5000 | > 1000 | –
20 | Fc1n[nH]cc1C1CCN(c2ccnc(-c3cnc4cnc(C(F)(F)F)cn34)n2)C1 (centres unmarked) [IV-524, 3-(4-(3-(3-Fluoro-1H-pyrazol-4-yl)pyrrolidin-1-yl)pyrimidin-2-yl)-6-(trifluoromethyl)imidazo[1,2-a]pyrazine] | < 500 | < 10 | – | – | –
21 | O=C1NCC2CN(c3cc(-c4cnc5ccc(C(F)F)nn45)ccn3)CCN12 (centres unmarked) [II-175, 7-(4-(6-(Difluoromethyl)imidazo[1,2-b]pyridazin-3-yl)pyridin-2-yl)hexahydroimidazo[1,5-a]pyrazin-3(2H)-one] | – | – | 500 to 5000 | 10 to 1000 | –
22 | FC(F)c1ccc2ncc(-c3ccnc(N4CCN5CCNCC5C4)c3)n2n1 (centres unmarked) [II-38, 2-(4-(6-(Difluoromethyl)imidazo[1,2-b]pyridazin-3-yl)pyridin-2-yl)octahydro-1H-pyrazino[1,2-a]pyrazine] | – | – | > 5000 | 10 to 1000 | –
23 | CNc1cc(-c2cnc3ccc(C(F)F)nn23)cc(N2CCCC(CNS(C)(=O)=O)C2)n1 (centres unmarked) [II-116, N-((1-(4-(6-(Difluoromethyl)imidazo[1,2-b]pyridazin-3-yl)-6-(methylamino)pyridin-2-yl)piperidin-3-yl)methyl)methanesulfonamide] | – | – | 500 to 5000 | < 10 | –
24 | FC(F)c1cn2c(-c3nccc(N4CCCC5CCCC54)n3)cnc2cn1 (centres unmarked) [IV-130, 6-(Difluoromethyl)-3-(4-(octahydro-1H-cyclopenta[b]pyridin-1-yl)pyrimidin-2-yl)imidazo[1,2-a]pyrazine] | > 5000 | 100 to 1000 | – | – | –
25 | Cc1cnc(-c2cnc3ccc(C(F)F)nn23)cc1N1CCCC(CNS(C)(=O)=O)C1 (centres unmarked) [II-53, N-((1-(2-(6-(Difluoromethyl)imidazo[1,2-b]pyridazin-3-yl)-5-methylpyridin-4-yl)piperidin-3-yl)methyl)methanesulfonamide] | – | – | 500 to 5000 | < 10 | –

— US10988477B2 (Merck Patent GmbH, priority 2018, dated 2021)
